These results are taken from PubChem BioAssay (NCI).

Test systems include SK-MEL-28 melanoma; SNB-75 CNS; EKVX NSCLC; SNB-19 CNS; 786-0 renal; DU-145 prostate; COLO 205 colon; OVCAR-8 ovarian; U251 CNS; MALME-3M melanoma.
Common to all, as to test: NCI anticancer screen, dose series, 48 h

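The compound was tested at five concentrations on cells cultured in 96-well plates, with a 48-hour exposure period. The concentration for 50% growth inhibition is given as GI50. At the TGI there is no net growth.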

`COc1ccc2c(c1)C=CC1C2CC[C@]2(C)C(NC(=O)/C=C/c3ccc(O)c(O)c3)CCC12` (stereo partly specified): the GI50 is 16.2 µM with SK-MEL-28 melanoma; 6.01 µM in the assay on SNB-75 CNS; 18.8 µM in the assay with EKVX NSCLC; 5.41 µM with SNB-19 CNS; 2.9 µM in the assay with 786-0 renal; 16.1 µM in the assay with DU-145 prostate. Moreover, the GI50 with COLO 205 colon was 2.61 µM; in the assay on OVCAR-8 ovarian, 14.2 µM. Besides, the TGI with SK-MEL-28 melanoma was 32 µM; in the assay on SNB-75 CNS, 20.5 µM; with EKVX NSCLC, 56.5 µM; in the assay with SNB-19 CNS it was 19.6 µM; in the assay on 786-0 renal it was 15.7 µM; with DU-145 prostate, 39.6 µM. Further, the TGI is 7.75 µM with COLO 205 colon and above 100 µM in the assay with OVCAR-8 ovarian.

As for `COC(=O)[C@@H](C)C[C@H](Cc1ccccc1)NC(=O)c1csc([C@@H](C[C@H](C(C)C)N(C)C(=O)[C@@H](NC(=O)[C@H]2CCCCN2C)C(C(F)(F)F)C(F)(F)F)OC(C)=O)n1`, the GI50 with SK-MEL-28 melanoma was 0.102 µM; with EKVX NSCLC it was 0.102 µM; in the assay with SNB-19 CNS it was 0.0658 µM; in the assay on U251 CNS, 0.0655 µM; in the assay on 786-0 renal, 0.0535 µM; in the assay on MALME-3M melanoma it was 0.0437 µM. Further, the results for the GI50 with DU-145 prostate, in the assay with COLO 205 colon and in the assay with OVCAR-8 ovarian were 0.047 µM, 0.0658 µM and 0.0927 µM, respectively. The TGI was above 16.7 µM with SK-MEL-28 melanoma; above 16.7 µM in the assay on EKVX NSCLC; above 16.7 µM in the assay with SNB-19 CNS; above 16.7 µM in the assay with U251 CNS; 3.53 µM in the assay with 786-0 renal; above 16.7 µM in the assay on MALME-3M melanoma. In addition, the TGI with DU-145 prostate was above 16.7 µM; in the assay on COLO 205 colon, 0.556 µM; with OVCAR-8 ovarian, above 16.7 µM.

With `N/C(CC(=O)NOC(=O)c1ccccc1)=N/OC(=O)c1ccccc1`, the TGI in the assay with SK-MEL-28 melanoma was 99.4 µM; in the assay with EKVX NSCLC it was 77.5 µM; in the assay on SNB-19 CNS it was above 100 µM; in the assay on U251 CNS it was above 100 µM; with 786-0 renal, above 100 µM; with MALME-3M melanoma, above 100 µM. In addition, the TGI in the assay on DU-145 prostate, in the assay on COLO 205 colon and with OVCAR-8 ovarian was above 100 µM throughout.

As to `C[C@H]1CCC2C(OC(=O)[C@@H]2CN(C)C)[C@]2(C)C(=O)C=CC12O` (stereo partly specified), the TGI is 8.35 µM in the assay with SK-MEL-28 melanoma; 27.1 µM in the assay on SNB-75 CNS; above 57.5 µM in the assay on SNB-19 CNS; 38.8 µM with U251 CNS; 11.2 µM in the assay on 786-0 renal; 16.7 µM in the assay with MALME-3M melanoma. Further, the TGI with DU-145 prostate turned out to be 23.2 µM; in the assay on COLO 205 colon, 17.9 µM.

For `O=C(N/N=C/c1ccc(N(CCCl)CCCl)cc1)c1ccc(C(=O)N/N=C/c2ccc(N(CCCl)CCCl)cc2)cc1`, the GI50 with SK-MEL-28 melanoma was above 100 µM; with SNB-75 CNS, 6.74 µM; with SNB-19 CNS it was 38.6 µM; in the assay on U251 CNS, 0.346 µM; in the assay with 786-0 renal, 2.55 µM; with MALME-3M melanoma, 11.2 µM. For the same compound, the GI50 with DU-145 prostate was 0.341 µM; in the assay with COLO 205 colon it was 15.8 µM; in the assay with OVCAR-8 ovarian, 12.9 µM. The TGI in the assay with SK-MEL-28 melanoma is above 100 µM; in the assay with SNB-75 CNS, above 100 µM; in the assay with SNB-19 CNS, above 100 µM; in the assay with U251 CNS, 17.1 µM; in the assay with 786-0 renal, above 100 µM; in the assay on MALME-3M melanoma, above 100 µM. Further, the TGI in the assay with DU-145 prostate, in the assay with COLO 205 colon and in the assay with OVCAR-8 ovarian was above 100 µM throughout.

For the compound `CC(=O)OC1=C(CC(C)(C)C)C(=O)c2ccccc2C1=O`, the TGI in the assay on SK-MEL-28 melanoma, with SNB-75 CNS, with EKVX NSCLC, in the assay on SNB-19 CNS, in the assay with U251 CNS and with 786-0 renal was above 100 µM each time. Moreover, the TGI with DU-145 prostate was above 100 µM; in the assay on COLO 205 colon, 72.5 µM; in the assay on OVCAR-8 ovarian it was above 100 µM.

Regarding `C[C@H]1CC[C@@H]2[C@@H](C)[C@H]3[C@H](C[C@H]4[C@@H]5CC=C6C[C@@H](O)CC[C@]6(C)[C@H]5CC[C@]34C)N2C1`, the TGI in the assay with SK-MEL-28 melanoma, in the assay with EKVX NSCLC, in the assay with SNB-19 CNS, in the assay with U251 CNS, in the assay with 786-0 renal and with MALME-3M melanoma was above 100 µM each time. Further, the TGI in the assay with DU-145 prostate is above 100 µM; with COLO 205 colon, 39.2 µM; in the assay with OVCAR-8 ovarian it was above 100 µM.

In the case of `O=[N+]([O-])c1ccc2nc(-c3ccc(Cl)cc3)[nH]c2c1`, the TGI in the assay on SK-MEL-28 melanoma was above 100 µM; with SNB-75 CNS, 68.5 µM; in the assay on EKVX NSCLC, 40.3 µM; in the assay on SNB-19 CNS, 80.1 µM; in the assay with 786-0 renal, above 100 µM; with MALME-3M melanoma it was 63 µM. Also, the TGI is 60.5 µM with DU-145 prostate, 30.7 µM with COLO 205 colon and above 100 µM in the assay on OVCAR-8 ovarian.

Take `CCSc1nc(N)c2cnn(CC)c2n1`: the GI50 in the assay on SK-MEL-28 melanoma is 20.4 µM; in the assay on EKVX NSCLC, 7.79 µM; in the assay on SNB-19 CNS, 30.2 µM; with U251 CNS it was 4.12 µM; with 786-0 renal, 26.5 µM; with MALME-3M melanoma it was 18 µM. For the same compound, the GI50 in the assay on DU-145 prostate is 5.75 µM; in the assay with COLO 205 colon, 18.9 µM; in the assay with OVCAR-8 ovarian, 3.21 µM. Also, the TGI in the assay with SK-MEL-28 melanoma is above 100 µM; with EKVX NSCLC it was 34.1 µM; with SNB-19 CNS, above 100 µM; with U251 CNS, 86 µM; in the assay on 786-0 renal, above 100 µM; in the assay with MALME-3M melanoma, 59 µM. In addition, the TGI with DU-145 prostate is 40.3 µM; with COLO 205 colon, above 100 µM; with OVCAR-8 ovarian, 19.4 µM.

As for `Cc1cc2nc(-c3ccc(O)c(O)c3)n(Cc3ccc(O)c(O)c3)c2cc1C`, the GI50 in the assay on SK-MEL-28 melanoma is 87.6 µM; in the assay with EKVX NSCLC it was 79.9 µM; in the assay with SNB-19 CNS, 65 µM; with U251 CNS, 5 µM; in the assay with 786-0 renal, 34 µM; in the assay with MALME-3M melanoma it was 27.2 µM. Besides, the GI50 is 40.7 µM with DU-145 prostate, 24.5 µM with COLO 205 colon and 26.4 µM in the assay on OVCAR-8 ovarian. Moreover, the TGI in the assay on SK-MEL-28 melanoma, in the assay with EKVX NSCLC, with SNB-19 CNS, in the assay with U251 CNS, with 786-0 renal and in the assay with MALME-3M melanoma was above 100 µM each time. Also, the TGI with DU-145 prostate, in the assay on COLO 205 colon and in the assay with OVCAR-8 ovarian was above 100 µM throughout.

With `Nc1ccn(C2CC3OCC3O2)c(=O)n1` (stereo unspecified), the TGI in the assay with SK-MEL-28 melanoma, in the assay with SNB-75 CNS, with EKVX NSCLC, in the assay on SNB-19 CNS, with U251 CNS and with 786-0 renal was above 100 µM throughout. In addition, the TGI in the assay with DU-145 prostate, with COLO 205 colon and in the assay with OVCAR-8 ovarian was above 100 µM throughout.
